The test system of series [1] is Salmon Head Kidney-1 (SHK-1) cells. The series can be described thus: cells. The conditions noted are these: for toxicity (in words): SHK-1, 512 to 2 μg/mL; for IC50 (cellular): SHK-1, 24 h at 16 °C, n = 6. As for the experimental part: (§1) Since F. psychrophilum is a bacterial pathogen that affects a wide variety of salmonids, we evaluated the toxicity of the [Cu(NN1)2]ClO4 complex in three different cell lines, Chinook salmon embryo (CHSE-214), Salmon Head Kidney-1 (SHK-1) and intestinal epithelial cell line (RT-GUT). For this experiment 1 × 10^5 cells were treated with the different compounds (coumarin, Cu(I) salt and copper (I) complex) in a range of concentrations between 512 μg/mL and 2 μg/mL, incubated at 16 °C for 24 h.
(§2) 1 × 10^5 Cells were seeded and incubated at 16 °C for 24 h. Later, the cells were treated with compounds in concentrations from 512 μg/mL to 2 μg/mL solubilized in dimethyl sulfoxide (DMSO, Merck, Darmstadt, Germany) and incubated at 16 °C for 24 h. Subsequently, the cells were collected, pelleted and resuspended in IF buffer (1X buffer and 2% fetal bovine serum) and 1 µL propidium iodide (PI, 1 mg/mL) was added. The cellular viability (negative to PI) was analyzed by flow cytometer using FACSCanto II Cytometer (BD biosciences, University of Santiago of Chile, Santiago, RM, Chile). For positive control, cells were incubated without compounds; for death control, cells were incubated with 50% ethanol; medium control cells were treated with medium containing 1% of DMSO. To calculate the IC50 of compounds in the cell lines, they were analyzed using GraphPad Prism program 5.0 (GraphPad Software, San Diego, CA, USA), the concentrations were transformed into log (10) and the number of events normalized in percentage, for the calculation of IC50 a nonlinear regression was performed.

Series [2] deals with Chinook salmon embryo (CHSE-214) cells. The series can be described thus: cells. The conditions noted are these: for toxicity (in words): CHSE-214, 512 to 2 μg/mL, 24 h; for IC50 (cellular): CHSE-214, 24 h at 16 °C, n = 6. As for the experimental part: as §1, §2
Series [3] concerns intestinal epithelial cell line (RT-GUT). The series can be described thus: cells. The conditions noted are these: for toxicity (in words) / IC50 (cellular): RT-GUT; for toxicity (in words): 512 to 2 μg/mL; for IC50 (cellular): 24 h at 16 °C, n = 6. On the procedure: as §1, §2
In series [4] the test system is Flavobacterium psychrophilum 10094. The series can be described thus: Antibacterial test (microdilution: MIC, MBC, IC50). The format is cell-based. To be noted: for MBC / MIC: n = 3; for MIC: F. psychrophilum 10094, 72 h post-incubation, visual; for Amount Cu in MBC / Amount Cu in MIC / Amount Total in IC50 / Amount Total in MBC / Amount Total in MIC: F. psychrophilum; for Amount Cu in MBC / Amount Cu in MIC: amount of copper contained; for Amount Total in IC50 / Amount Total in MBC / Amount Total in MIC: total compound. On the procedure: A bacterial strain of Flavobacterium psychrophilum (ETECMA) originally isolated from Salmon Coho (Oncorhynchus kisutch) in 2008 in Chiloe, Chile, was used for antibacterial test. […] The strain was cultivated in TYES broth (pH = 7.2) at 15 °C for 48 h with stirring at 180 rpm.
To determine MIC, MBC and IC50 of complex and its precursors, microdilution method was performed with some modifications. F. psychrophilum 10094 (0.4 OD600 nm = 1 × 10^8 CFU/mL, approximately) was inoculated in TYES broth pH 7.2 to 1% cell suspension in 96-well plates (Falcon) and treated with complex and its precursors in serial concentrations between 512 μg/mL to 2 μg/mL and incubated for 72 h at 15 °C with agitation at 180 rpm. The MIC was determined as the lowest compounds concentrations which inhibited bacterial grow by visual comparison with the negative control (TYES broth). […] The MBC was determined as the minimum concentration of the compounds at which the bacterial colony count was diminish to 99.9%. For determination of the half-maximal inhibitory concentration (IC50) of compounds on F. psychrophilum, the OD600 nm of each wells was measured using Nanoquant Infinite M200 Pro (TECAN, Grödig, Austria). For the correct calculation of the OD of each concentration of each compound, wells with TYES medium were used with each concentration without inoculating with F. psychrophilum, this control OD was subtracted obtaining the final OD. Data were analyzed using the GraphPad Prism program 5.0.
In general terms: In broth dilution the organism is exposed to a series of concentrations in liquid medium.

Series [5] is described as follows: Stability in solution by UV-Vis spectra. It is filed as physicochemical. The conditions noted are these: 72 h after the solution was prepared, CHCl3, air-exposed, room temperature. As for the experimental part:
The spectral region below 400 nm in complex correspond at π to π* intraligand transition bands, which are similar profile of free ligand, but undergo a red-shift upon complexation to copper(I) in around 20 nm.
All the chemicals were purchased commercially and used without further purification. ^1H, ^13C NMR and 2D spectra were recorded on a Bruker Avance Neo 400 MHz spectrometer (400.133 MHz for ^1H, 40.559 MHz for ^15N and 100.613 MHz for ^13C, (University of Santiago of Chile, Santiago, RM, Chile) equipped with a 5 mm multinuclear broad-band dual probehead, incorporating a z-gradient coil. All the measurement was done in CDCl3 at 300 K. Chemical shifts (in ppm) for ^1H and ^13C were calibrated respect to the residual protonated signal of the solvent (7.26 and 77 ppm respectively) and reported relative to Me4Si. The ^15N signal in ^1H ^15N HMBC were calibrated relative to CH3NO2 (90%) in CDCl3). The following abbreviations were used to explain the multiplicities: s = singlet, d = doublet, m = multiplet. […] Electrochemical behavior was studied by cyclic voltammetry using a potentiostat CHI 620E by CH instrument equipment supplied with the electrochemical analyzer CHI software (University of Santiago of Chile, Santiago, RM, Chile). […]

Series [6] is described as follows: Cyclic voltammetry, Cu(II)/Cu(I) oxidation potential. The format is physicochemical. To be noted: vs Ag/AgCl, CH2Cl2, 0.1 M TBAP, quasireversible, ΔE = 114 mV. On the procedure: Voltammetry studies were also performed in order to determine the effect of new NN1 ligand on the Cu(II)/Cu(I) oxidation potential considering the well-known fact of high influence of ligands on the metal-centered HOMO energy. Consequently, measurements were registered at room temperature in −1.10 to +1.30 V vs Ag/AgCl potential range.
All the chemicals were purchased commercially and used without further purification. ^1H, ^13C NMR and 2D spectra were recorded on a Bruker Avance Neo 400 MHz spectrometer (400.133 MHz for ^1H, 40.559 MHz for ^15N and 100.613 MHz for ^13C, (University of Santiago of Chile, Santiago, RM, Chile) equipped with a 5 mm multinuclear broad-band dual probehead, incorporating a z-gradient coil. All the measurement was done in CDCl3 at 300 K. Chemical shifts (in ppm) for ^1H and ^13C were calibrated respect to the residual protonated signal of the solvent (7.26 and 77 ppm respectively) and reported relative to Me4Si. The ^15N signal in ^1H ^15N HMBC were calibrated relative to CH3NO2 (90%) in CDCl3). […] Electronic spectra were recorded on a PerkinElmer UV-VIS Lambda 25 spectrophotometer (University of Santiago of Chile, Santiago, RM, Chile) at room temperature, wavelength range between 200 and 1100 nm from 1.5 × 10^−5 mol/L solutions in dichloromethane to NN1 and [Cu(NN1)2]ClO4. […]

Details of series [7]: method as in PMID 30177987. To be noted: versus Ag/AgCl in CH2Cl2 ref 18; cited from earlier work.
[8] abbreviates: F. psychrophilum 10094, colony count diminished to 99.9%.
The mark [9] stands for this setting: F. psychrophilum 10094, 72 h post-incubation at 15 °C, OD600, n = 3.

In brackets after ≈: the same amount, converted by molar mass. Like-named read-outs stand apart in the source and are kept apart here. Marks after values point to notes of the source that are not given here.

The IC50 is the concentration that gives 50% inhibition. Broadly, the MBC is the smallest concentration meeting the test's criterion for killing. What is called MIC is the lowest concentration that inhibits growth of the organism.

On to `O=c1ccc2ccccc2o1` [Coumarin, 1-benzopyran-2-one], for which the IC50 in series [1] (24 h, read-out: IC50 (cellular)) was over 512 µg/mL; in series [2] (CHSE-214, 24 h, read-out: IC50 (cellular)), over 512 µg/mL; in series [3] (Oncorhynchus mykiss, Epithelial cell, 24 h, read-out: IC50 (cellular)), over 512 µg/mL; in series [4] (Flavobacterium psychrophilum, F. psychrophilum 10094, 72 h post-incubation at 15 °C, OD600, n = 3, read-out: IC50 (bacterial)), 160 ± 25.5 µg/mL (≈ 1.09 mM). Moreover, the “toxicity (in words)” value in series [1] (24 h), in series [2] and in series [3] (24 h) was “toxicity was not observed” throughout. Further, the MBC in series [4] (setting [8]) is over 512 µg/mL; in series [4] (Flavobacterium psychrophilum, 10094, F. psychrophilum 10094, colony count diminished to 99.9%, read-out: MBC) it was under 512 µg/mL. Also, the MIC in series [4] (Flavobacterium psychrophilum, read-out: MIC) is 512 µg/mL (≈ 3.5 mM).

For `CC#N.CC#N.CC#N.CC#N.[Cu+].[O-][Cl+3]([O-])([O-])[O-]` [[Cu(CH3CN)4]ClO4], the “toxicity (in words)” value in series [1] (24 h) is “concentration-dependent toxicity was observed”. Further, the “IC50 (cellular)” value in series [1] was 159 ± 44.6 ^a µg/mL. Also, in series [2], the “toxicity (in words)” value is “concentration-dependent toxicity was observed” and the “IC50 (cellular)” value is given as 59.4 ± 4.1 ^a µg/mL. Besides, the “toxicity (in words)” value in series [3] (24 h) is listed as “concentration-dependent toxicity was observed”. In addition, the “IC50 (cellular)” value in series [3] is given as 233.9 ± 19.5 ^a µg/mL. In series [4] (setting [9]), the “IC50 (bacterial)” value is given as 10.4 ± 0.7 ^b µg/mL. In addition, in series [4], the MIC was 64 µg/mL, the “Amount Cu in MBC” value is 12.5 µg/mL, the “Amount Cu in MIC” value is 12.5 µg/mL and the “Amount Total in IC50” value stood at 10.4 µg/mL. In series [4], the “Amount Total in MBC” value is on record as 64 µg/mL and the “Amount Total in MIC” value is on record as 64 µg/mL. Further, the minimum bactericidal concentration (MBC) in series [4] (setting [8]) was determined as 64 µg/mL.

On to `O=c1ccc2cc(N=Cc3ccc4ccccc4n3)ccc2o1.O=c1ccc2cc(N=Cc3ccc4ccccc4n3)ccc2o1.[Cu+].[O-][Cl+3]([O-])([O-])[O-]` [[Cu(NN1)2]ClO4], for which the “toxicity (in words)” value in series [1] (24 h) is on record as “concentration-dependent toxicity was observed”. In addition, in series [1], the “IC50 (cellular)” value is recorded as 30.8 ± 1.3 ^b µg/mL. Further, in series [2], the “toxicity (in words)” value is recorded as “concentration-dependent toxicity was observed” and the “IC50 (cellular)” value is reported as 29.1 ± 1.4 ^b µg/mL. In addition, in series [3] (24 h), the “toxicity (in words)” value was “concentration-dependent toxicity was observed”. Further, the “IC50 (cellular)” value in series [3] was 53.0 ± 3.1 ^b µg/mL. The “stability in solution (changes in UV-Vis spectral bands)” value in series [5] was “No significant changes in the spectral bands”. Further, the “IC50 (bacterial)” value in series [4] (setting [9]) was 16.1 ± 0.9 ^c µg/mL. Further, in series [4], the MIC was 32 µg/mL, the “Amount Cu in MBC” value turned out to be 2.7 µg/mL, the “Amount Cu in MIC” value is recorded as 2.7 µg/mL and the “Amount Total in IC50” value is listed as 16.1 µg/mL. In addition, in series [4], the “Amount Total in MBC” value came out at 32 µg/mL and the “Amount Total in MIC” value was 32 µg/mL. For the same molecule, the MBC in series [4] (setting [8]) stood at 32 µg/mL. For the same molecule, in series [6], the “E1/2 Cu(II)/Cu(I) couple” value was 0.426 V.

Turning to `[Cu+].[O-][Cl+3]([O-])([O-])[O-].c1ccc2nc(-c3ccc4ccccc4n3)ccc2c1.c1ccc2nc(-c3ccc4ccccc4n3)ccc2c1` [[Cu(biq)2]ClO4], the E1/2 in series [7] is 0.96 V.

These data come from article PMC7397040, “New Copper(I) Complex with a Coumarin as Ligand with Antibacterial Activity against Flavobacterium psychrophilum” (Molecules, 2020).
